Experimental data from US20140271634A1, “COMBINATIONS OF A MEK INHIBITOR COMPOUND WITH AN HER3/EGFR INHIBITOR COMPOUND AND METHODS OF USE” (The Regents of the University of California, priority 2013, published 2014).
Read-outs that look alike come from different tables or passages of the source.

Tests used:
[1] = system: tumor cells bearing activating Ras mutations; assay: Growth of tumor cells bearing activating Ras mutations; type: cell-based; conditions: FIG. 6
Source text: (§1) In one embodiment, the MEK inhibitor of the combination therapy is either GDC-0973 or GDC-0623. […] FIG. 5. […] FIG. 6.

A375 (BRAF^V600E) = assay: Proliferation, A375 cells; type: cell-based
HCT115 (KRAS^G13D) = assay: Proliferation, HCT115 cells; type: cell-based
[2] = system: tumor cells bearing activating B-RAF mutations; assay: Growth of tumor cells bearing activating B-RAF mutations; type: cell-based; conditions: FIG. 5
Source text: as §1

LS180 cells = assay: TGFα-stimulated LS180 cells, immunoblot of pAKT and pERK1/2; type: cell-based; conditions: 10 μg/mL MEHD7945A, 0.05 μM cobimetinib or combination 1 hour before 5 nM TGFα 12 minutes
Source text: (§2) Inhibition of the RAS/RAF/MEK and the PI3K/AKT pathways were explored in vitro using MEHD7945A and cobimetinib or the combination of both agents in KRAS-mutant colorectal cell lines. Two KRAS mutant colorectal cell lines were selected to assess the potential upregulation of phosphorylated AKT (pAKT) by cobimetinib due to the inhibition of negative feedback loops. Upregulation of pAKT upon MEK inhibition has been described in several cell systems (Mirzoeva et al. 2009; Diep et al 2011; Turke et al. 2012). Moreover, we investigated if the addition of MEHD7945A to cobimetinib treatment could enhance pAKT and pERK1/2 inhibition. LS180 cells were pretreated with 10 μg/mL MEHD7945A, 0.05 μM cobimetinib, or the combination thereof for one hour before stimulation with 5 nM TGFα for twelve minutes. DLD-1 cells were pretreated with 10 μg/mL MEHD7945A, 0.025 μM cobimetinib, or the combination thereof for 1 hour before stimulation with 5 nM TGFα for 12 minutes. Cell lysates were immunoblotted to detect phosphorylation of EGFR (pEGFR1068), phosphorylation of AKT (pAKTS473), and phosphorylation of ERK1/2 (pERK1/2 T202/Y204), and total protein levels of EGFR, AKT, or ERK1/2. The results are shown in FIG. 9 (left panel=LS180 cells, right panel=DLD-1 cells) (EGFR=epidermal growth factor receptor; ERK=extracellular signal regulated kinase; p=phosphorylated; TGFα=transforming growth factor α) […]

[3] = system: LS180 Colorectal Adenocarcinoma Tumor Xenografts; assay: LS180 colorectal xenograft combination study (Example 7); type: in vivo, mice
Experimental: (§3) A combination study of MEHD7945A and cobimetinib was conducted in the KRAS-mutant colorectal xenograft models LS180 and DLD-1. Both of these models were selected because of their KRAS-mutant status and their EGFR and HER3 expression. Cobimetinib was administered as an aqueous solution orally at […] once daily for 21 days. MEHD7945A was administered IV once a week until Day 21 was reached. Tumor sizes and body weights were recorded twice weekly over the course of the study. Mice were promptly euthanized when tumor volume exceeded 2000 mm3 or if body weight loss was 20% of their starting weight.
(§4) To appropriately analyze the repeated measurement of tumor volumes from the same animals over time, a mixed-modeling approach was used (Pinheiro et al. 2009). This approach addressed both repeated measurements and modest drop-out rates due to non-treatment-related termination of animals before study end. This analysis was used to determine tumor growth inhibition as a percentage of vehicle (% TGI) or time to tumor progression (TTP).
After randomization, LS180 tumor bearing mice were given oral (PO) gavage doses of 0 (vehicle), 3, or 10 mg/kg cobimetinib (expressed as free-base equivalents) once a day (QD) for 21 days. Mice were given 25 mg/kg of MEHD7945A via intravenous (IV) bolus injection once per week (QW) for a total of three injections. In groups that received both agents, cobimetinib was administered first and immediately followed by MEHD7945A.

DLD-1 cells = assay: TGFα-stimulated DLD-1 cells, immunoblot of pAKT and pERK1/2; type: cell-based; conditions: 10 μg/mL MEHD7945A, 0.025 μM cobimetinib or combination 1 hour before 5 nM TGFα 12 minutes
Source text: as §2

[4] = system: KRAS-Mutant DLD-1 Colorectal Adenocarcinoma Tumor Xenografts; assay: DLD-1 colorectal xenograft combination study (Example 7); type: in vivo, mice
Experimental: as §3, §4
(§5) After randomization, DLD-1 tumor bearing mice were given PO gavage doses of 0 (vehicle), 3, or 10 mg/kg cobimetinib (expressed as free-base equivalents) QD for 21 days. Mice received 25 mg/kg of MEHD7945A via IV bolus injection QW for a total of three injections. In groups that received both agents, cobimetinib was administered first and immediately followed by MEHD7945A.

[5] = system: BxPC3 Ductal Pancreatic Xenograft Tumors; assay: Pancreatic BxPC3 xenograft combination study (Example 8); type: in vivo, mice
Source text: as §4
as §5, with “randomization,” for “randomization, DLD-1 tumor bearing”, “(vehicle), 1,” for “(vehicle), 3,”, “or 5” for “or 10”, “Mice were given” for “Mice received”
Time to tumor progression (TTP) to twice (2×) initial tumor volume was monitored for each group following 21 days of dosing (see FIG. 13C). […] In FIG. 13 CI=confidence interval; CR=complete response (100% decrease in tumor volume); HB#8=histidine buffer; MCT=0.5% (w/v) methylcellulose, 0.2% (w/v) polysorbate 80; NA=not achieved; PR=partial response (50-99% decrease in tumor volume); TTP=time to tumor progression to twice (2×) or five times (5×) the initial tumor volume represents the group average in days.

pERK1/2 (Thr202/Tyr204) [6] = assay: NRG-stimulated MCF-7 cells, immunoblot of pERK1/2; type: cell-based; conditions: 0.5 nM NRG for 10 min
Experimental: (§6) The assays were performed as follows. […] FIG. 2A.

EGFR [7] = target: T1, EGFR (Homo sapiens, UniProt P00533); conditions: cited from earlier work
pERK1/2 (Thr202/Tyr204) [8] = conditions: EGFR-NR6 cells, 1 hr pretreatment, 5 nM TGF-a for 10 min
Experimental: The assays were performed as follows. MCF-7 cells treated with indicated concentrations of MEHD7945A or anti-HER3 were stimulated with 0.5 nM NRG for 10 min. Cell lysates were immunoblotted to detect pHER3 (Tyr1289), pAKT (Ser473), pERK1/2 (Thr202/Tyr204), and total HER3. FIG. 2A. […] Cell lysates were subjected to immunoblotting to detect, pERK1/2 (Thr202/Tyr204), total EGFR, and phosphorylated EGFR. Since EGFR-NR6 cells only express EGFR all potential phosphorylation sites of EGFR were detected using a pTyr antibody.

ERK1/2 and AKT pathways = conditions: A431 and BxPC3 cells
EGFR [9] = target: T1, EGFR; assay: Betacellulin- and amphiregulin-induced EGFR phosphorylation; type: cell-based
pHER3 (Tyr1289) = target: T2, pHER3 (Tyr1289) (Homo sapiens, UniProt P21860); assay: NRG-stimulated MCF-7 cells, immunoblot of pHER3; type: cell-based; conditions: 0.5 nM NRG for 10 min
T2 construct: endogenous in cells; host or cells: MCF-7
Experimental: as §6

HER3-ECD = HER3-ECD (Homo sapiens, UniProt P21860); conditions: soluble competitor 0.02-20 μg/ml
FaDu cells = assay: FaDu xenograft, head and neck squamous cell carcinoma model; type: in vivo; conditions: FaDu tumors in CB17 SCID mice, 25 mg/kg intraperitoneally weekly, 2× loading dose, four treatments
Experimental: MEHD7945A, a commercially available anti-EGFR antibody, and an anti-HER3 antibody were tested in mice with established tumors derived from Fadu cells (ATCC HTB-43, Manassas, Va.) 5×10^6 FaDu cells were inoculated subcutaneously in CB17 SCID mice. Animals with similarly sized tumors were randomized into treatment cohorts (n=9/group) as follows: Vehicle (MEHD7945A formulation buffer), anti-EGFR antibody (25 mg/kg), anti-HER3 antibody (50 mg/kg), and MEHD7945A (25 mg/kg). Treatments were administered intraperitoneally, beginning with a 2× loading dose (50 or 100 mg/kg respectively) on the day of randomization and continuing weekly for a total of four treatments.

pAKT (Ser473) = assay: NRG-stimulated MCF-7 cells, immunoblot of pAKT; type: cell-based; conditions: 0.5 nM NRG for 10 min
Experimental: as §6

phosphorylated EGFR = target: T3, phosphorylated EGFR (Homo sapiens, UniProt P00533); assay: TGF-a-stimulated EGFR-NR6 cells, immunoblot of phosphorylated EGFR; type: cell-based; conditions: 1 hr pretreatment, 5 nM TGF-a for 10 min
T3 construct: expressed in transfected cells; host or cells: EGFR-NR6
Experimental: The assays were performed as follows. […] Cell lysates were subjected to immunoblotting to detect, pERK1/2 (Thr202/Tyr204), total EGFR, and phosphorylated EGFR. Since EGFR-NR6 cells only express EGFR all potential phosphorylation sites of EGFR were detected using a pTyr antibody.

[10] = cobimetinib 3 mg/kg PO QD 21 days
[11] = cobimetinib 10 mg/kg PO QD 21 days
[12] = MEHD7945A 25 mg/kg IV QW, three injections

O=C(NOCCO)c1ccc2cncn2c1Nc1ccc(I)cc1F [GDC-0623]
inhibiting the growth of tumor cells bearing activating Ras mutations [1]: more activity | EC50 (A375 (BRAF^V600E)): 7 nM | EC50 (HCT115 (KRAS^G13D)): 42 nM

O=C(c1ccc(F)c(F)c1Nc1ccc(I)cc1F)N1CC(O)([C@@H]2CCCCN2)C1 [GDC-0973, cobimetinib]
inhibiting the growth of tumor cells bearing activating B-RAF mutations [2]: more activity | phosphorylation of AKT (pAKTS473) (LS180 cells): increased phosphorylation of AKT | phosphorylation of ERK1/2 (pERK1/2 T202/Y204) (LS180 cells): partial inhibition | EC50 (A375 (BRAF^V600E)): 5 nM | EC50 (HCT115 (KRAS^G13D)): 520 nM | TGI [3, 10]: 28% | TGI [3, 11]: 63% | phosphorylation of AKT (pAKTS473) (DLD-1 cells): increased phosphorylation of AKT | phosphorylation of ERK1/2 (pERK1/2 T202/Y204) (DLD-1 cells): partial inhibition | TGI [4, 10]: 39% | TGI [4, 11]: 62% | TTP 2× (time to tumor progression to twice initial tumor volume) ([5]; cobimetinib 1 mg/kg): 22 days | TGI ([5]; cobimetinib 1 mg/kg PO QD 21 days): 88% | TTP 2× (time to tumor progression to twice initial tumor volume) ([5]; cobimetinib 5 mg/kg): 33 days | TGI ([5]; cobimetinib 5 mg/kg PO QD 21 days): 109%

B1: MEHD7945A: dual-action antibody which comprises two identical antigen binding domains, each of which specifically binds to both HER3 and EGFR (antibody, V domains shown)
VH: EVQLVESGGGLVQPGGSLRLSCAASGFTLSGDWIHWVRQAPGKGLEWVGEISAAGGYTDYADSVKGRFTISADTSKNTAYLQMNSLRAEDTAVYYCARESRVSFEAAMDYWGQGTLVTVSS
VL: DIQMTQSPSSLSASVGDRVTITCRASQNIATDVAWYQQKPGKAPKLLIYSASFLYSGVPSRFSGSGSGTDFTLTISSLQPEDFATYYCQQSEPEPYTFGQGTKVEIKR
IC50, phosphorylation of ERK1/2 (pERK1/2 (Thr202/Tyr204) [6]): 1.13 µg/mL | Kd (EGFR [7]): ~1.9 nM | IC50, phosphorylation of ERK1/2 (pERK1/2 (Thr202/Tyr204) [8]): 0.16 µg/mL | inhibition of ERK1/2 and AKT pathways (ERK1/2 and AKT pathways): as potently as the combination of anti-HER3 and cetuximab | betacellulin- and amphiregulin-induced EGFR phosphorylation (EGFR [9]): inhibited | IC50, phosphorylation of HER3 (pHER3 (Tyr1289)): 0.05 µg/mL | binding to immobilized HER3-ECD with increasing amounts of EGFR-ECD (HER3-ECD): reduced in a dose-dependent manner | TGI [3, 12]: 44% | inhibition of tumor growth (FaDu cells): more effective in inhibiting tumor growth than either an anti-EGFR specific or an anti-HER3 specific antibody | IC50, phosphorylation of AKT (pAKT (Ser473)): 0.19 µg/mL | TGI [4, 12]: 62% | TTP 2× (time to tumor progression to twice initial tumor volume) ([5]; MEHD7945A 25 mg/kg): 39.5 days | TGI [5, 12]: 107% | IC50, phosphorylation of EGFR (phosphorylated EGFR): 0.03 µg/mL
